For series [1] the following is noted: cited from earlier work.
Series [2] in a line: dissociation constant (pKa) of the acids used. It counts as physicochemical. The conditions noted are these: determined by experiment. On the procedure:
Column 1 indicates the number of the experiment, column 2 the concentration of buprenorphine base, column 3 the quality and quantity of the acid used, column 4 the dissociation constant of the acids used, column 5 the plasticizer, column 6 the polymers used, and column 7 the absorption rate under in-vitro-conditions. The relative amount of buprenorphine base diffusing through mice skin within 24 h, relative to the amount per TTS, is given. The penetration results were obtained using mice skin clamped in a Franz-Cell.
It is seen from column 4 that the dissociation constants of the carboxylic acids used are quite similar. However, if the plasticizer, oleyl oleate, is used in a 10%-concentration each time, it can be seen from Examples 1 and 3 or 2 and 4 that only the carboxylic acids having a tendency to form subcooled melts cause a marked penetration increase under in-vitro conditions. […] This was compensated by a higher concentration of the two weaker acids, amounting to 15%, as compared to the concentration of the two stronger acids. However, it can also be seen that the dissociation constants are so similar that the absorption-promoting effect cannot be explained by the dissociation constants.

Like-named read-outs stand apart in the source and are kept apart here. Marks after values point to notes of the source that are not given here.

Our source for the pKa value values is patent US6344211B1, “Transdermal absorption of active substances from subcooled melts” (LTS Lohmann Therapie-Systeme GmbH, priority 1994, dated 2002).

`O=C(O)CCCC(=O)O` [glutaric acid]: the pKa value in series [1] (pKa I of glutaric acid, given for the glutaric acid monomethyl ester line) is on record as 4.33*. Turning to `CC(=O)CCC(=O)O` [levulic acid], the pKa value in series [2] is reported as 4.4**. As to `C=CCCCCCCCCC(=O)O` [undecenoic acid], the pKa value in series [1] (dissociation constant of the acid used in the TTS) is on record as 4.5.
